Literature values in patent US20250170148A1, “NEUROACTIVE STEROIDS FOR TREATMENT OF GASTROINTESTINAL DISEASES OR CONDITIONS” (Sage Therapeutics, Inc., priority 2022, published 2025).
“Also recorded” adds a separate entry of the source. Read-outs that look alike come from different tables or passages of the source.

Experiments:
[1] = test system: patients with major depressive disorder; settings: meta-analysis; for rate of gastrointestinal adverse reactions compared to placebo: 15 most commonly used antidepressants in MDD; for gastrointestinal tolerability among antidepressants: patients with MDD

Row | SMILES | rate of gastrointestinal adverse reactions compared to placebo [1] | other results
1 | Cc1ccc(Sc2ccccc2N2CCNCC2)c(C)c1 [vortioxetine] | higher rates of gastrointestinal adverse reactions compared to placebo | 
2 | CN1CCN2c3ncccc3Cc3ccccc3C2C1 (centres unmarked) [mirtazapine] | higher rates of gastrointestinal adverse reactions compared to placebo | 
3 | CNCC[C@H](Oc1cccc2ccccc12)c1cccs1 [duloxetine] | higher rates of gastrointestinal adverse reactions compared to placebo | 
4 | CN(C)CCCC1(c2ccc(F)cc2)OCc2cc(C#N)ccc21 (centres unmarked) [citalopram] | higher rates of gastrointestinal adverse reactions compared to placebo | 
5 | CCN(CC)C(=O)[C@@]1(c2ccccc2)C[C@H]1CN [levomilnacipran] | higher rates of gastrointestinal adverse reactions compared to placebo | 
6 | CN[C@H]1CC[C@@H](c2ccc(Cl)c(Cl)c2)c2ccccc21 [sertraline] | higher rates of gastrointestinal adverse reactions compared to placebo | incidence of diarrhea (compared to other SSRIs and venlafaxine): higher incidence of diarrhea; gastrointestinal tolerability among antidepressants [1]: least tolerated antidepressants on the gastrointestinal tract; also recorded: least tolerated antidepressants on the GI tract
7 | Fc1ccc([C@@H]2CCNC[C@H]2COc2ccc3c(c2)OCO3)cc1 [paroxetine] | higher rates of gastrointestinal adverse reactions compared to placebo | 
8 | CN(C)CC(c1ccc(O)cc1)C1(O)CCCCC1 (centres unmarked) [desvenlafaxine] | higher rates of gastrointestinal adverse reactions compared to placebo | 
9 | COc1ccc(C(CN(C)C)C2(O)CCCCC2)cc1 (centres unmarked) [venlafaxine] | higher rates of gastrointestinal adverse reactions compared to placebo | rates of nausea and vomiting (compared to SSRIs and duloxetine): higher rates of nausea and vomiting
10 | COCCCC/C(=N\OCCN)c1ccc(C(F)(F)F)cc1 [fluvoxamine] | higher rates of gastrointestinal adverse reactions compared to placebo | 
11 | CN(C)CCC[C@@]1(c2ccc(F)cc2)OCc2cc(C#N)ccc21 [escitalopram] | higher rates of gastrointestinal adverse reactions compared to placebo | gastrointestinal tolerability among antidepressants [1]: least tolerated antidepressants on the gastrointestinal tract; gastrointestinal tolerability among antidepressants ([1]; listed as Escitalopram): least tolerated antidepressants on the GI tract
12 | CC(NC(C)(C)C)C(=O)c1cccc(Cl)c1 (centres unmarked) [bupropion] | higher rates of gastrointestinal adverse reactions compared to placebo | 
13 | COc1ccc2cccc(CCNC(C)=O)c2c1 [agomelatine] | higher rates of gastrointestinal adverse reactions compared to placebo | 
14 | CNCCC(Oc1ccc(C(F)(F)F)cc1)c1ccccc1 (centres unmarked) [fluoxetine] | higher rates of gastrointestinal adverse reactions compared to placebo | 
15 | CCOc1ccccc1OC(c1ccccc1)C1CNCCO1 (centres unmarked) [reboxetine] | higher rates of gastrointestinal adverse reactions compared to placebo | 
